Where two headings read alike, the source gives them in different places.
Tests used:
[1] = test system: T. cruzi Tulahuen lacZ strain; experiment: in vitro trypanocidal activity, infected LLC-MK2 cells, CPRG readout; format: cell-based, Trypanosoma cruzi; conditions: for IC50: Trypanosoma cruzi
Protocol: In vitro trypanocidal activity of the compounds was evaluated against amastigote forms of Tulahuen strain that was genetically modified to express β-galactosidase gene from E. coli (lacZ). A monkey kidney cell strain (LLC-MK2 - ATCC) was resuspended in RPMI medium without phenol red (Gibco-BRL Life Technologies, Grand Island, NY) containing 10% fetal bovine serum (Life Technologies Inc., Bethesda, MD) and antibiotics (Sigma Chemical Co., St. Louis) at 2×10^3 cells/well and were cultured in 96-well plates for 24 h. The cells were infected with 1×10^4 trypomastigote forms of T. cruzi Tulahuen strain, and after 24 h compounds were added with different concentrations (250, 125, 62.5, 31.25, 15.6, 7.8, 3.9 and 1.95 µM). After 4 days of culture, 50 µL of PBS containing 0.5% of Triton X-100 and 100 µM Chlorophenol Red-β-D-galactoside (CPRG - Sigma) were added. Plates were incubated at 37°C for 4 h and absorbance was read at 570 nm. Benznidazole (N-benzyl-2-nitro-1-imidazolacetamide), in the same concentrations as above was used as a reference trypanocidal drug (positive control), [41].

[2] = mammalian cell cytotoxicity, propidium iodide flow cytometry; format: cell-based, mice; conditions: C57BL/6, mouse, primary spleen cells, mouse spleen cells, 24 h; read-out: Cytotoxic IC50
Protocol: (§1) Mammalian cell cytotoxicity was evaluated using the protocol previously reported. Spleen cells from C57BL/6 mice were isolated by mechanical dissociation, followed by incubation for 5 min with red blood cell lysis buffer (one part of 0.17 M Tris–HCl [pH 7.5] and nine parts of 0.16 M ammonium chloride). The cells were washed and suspended in RPMI 1640 medium (Gibco-BRL Life Technologies, Grand Island, NY) supplemented with 10% fetal bovine serum (Life Technologies Inc., Bethesda, MD) and antibiotics (Sigma). The cell suspension was cultured in flat-bottom 96-well plates at 5×10^5 cells per well with different concentrations of the tested compounds and incubated at 37°C in a humidified atmosphere of 5% CO2 for 24 h. Tween 20 at 0.5% was used as cell death positive control. To analyze cytotoxicity, cells were harvested, incubated with 10 µg mL^−1 propidium iodide (Sigma) and after 15 min data were acquired using a FACSCantoII (Becton-Dickinson Immunocytometry System Inc., San Jose, CA, USA). Data analysis was performed using FlowJo software (Ashland, OR, USA). The range of concentrations used for assaying cytotoxicity was 250, 125, 62.5, 31.25, 15.6, 7.8, 3.9, and 1.95 (µM).

[3] = test system: Spleen cells from C57BL/6 mice; experiment: as above; format: cell-based; conditions: for IC50: mouse spleen cells, 24 h, read-out: Cytotoxic IC50; for cytotoxicity ratio (IC50(cyto)/IC50)(T. cruzi): spleen cell IC50 over T. cruzi IC50
Protocol: as §1

[4] = molecular target: T1, cruzain (Trypanosoma cruzi, UniProt P25779); experiment: cruzain enzyme assay, IC50 determination (Z-FR-MCA fluorescence); format: biochemical; conditions: for IC50: Neq42 analogs, SAR, unit inferred, read-out: IC50, cruzain inhibition (Figure 6)
T1 construct: Recombinant cruzain enzyme was expressed and purified as previously described; made in house
T1 sequence (P25779 123-337 limits assumed): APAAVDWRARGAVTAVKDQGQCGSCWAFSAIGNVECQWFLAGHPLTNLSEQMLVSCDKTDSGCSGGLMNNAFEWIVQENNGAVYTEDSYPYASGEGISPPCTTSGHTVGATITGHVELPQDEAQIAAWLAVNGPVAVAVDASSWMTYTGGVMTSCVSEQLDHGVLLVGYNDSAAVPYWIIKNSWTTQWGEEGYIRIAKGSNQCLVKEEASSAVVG
Protocol: (§2) Recombinant cruzain enzyme was expressed and purified as previously described. The activity of the cruzain enzyme was measured and quantified through active-site titration with the irreversible inhibitor E-64, as described previously. Cathepsin L enzyme and all reagents used for buffer preparation were purchased from Sigma-Aldrich (St. Louis, MO, USA). The compounds screened against the enzymes were purchased from Enamine (Kiev, Ukraine), Chemdiv (San Diego, CA, USA), Asinex (Moscow, Russia) and IBScreen (Moscow, Russia) and had more than 95%purity, according to these suppliers. All experiments were carried out with freshly made solutions.
(§3) The activity of cruzain was measured in 100 mM phosphate buffer, 100 mM NaCl, 10 mM EDTA, DMSO (5.0% v/v), Triton X-100 (0.01% v/v) and 5.0 mM DTT at pH 6.3. The activity of cathepsin L was measured in 100 mM sodium acetate buffer, 100 mM NaCl, 10 mM EDTA, DMSO (5.0% v/v), Triton X-100 (0.01% v/v) and 5.0 mM DTT at pH 5.5. Both assays were carried out with 2 nM of the respective enzymes and 2 µM of the substrate Z-FR-MCA.
The reaction started by the addition of the substrate Z-FR-MCA was monitored by recording the emission at wavelength 460 nm while exciting at 360 nm. Fluorescence was measured using a Synergy HT fluorimeter microplate reader (Biotek). The percentage of inhibition was calculated according to following equation: [drawing 1] where vi and v0 are the initial velocities determined in presence and absence of inhibitors, respectively. The activity of enzyme in the presence of inhibitors was measured in 11 different concentrations in order to obtain the dose-response curves, which were analyzed using the Origin 7.0 program to determine the IC50 values. All experiments were repeated at least in duplicate.

[5] = test system: Chagas disease; set-up: method as in PMID 19900395; conditions: acute phase ref 5; cited from earlier work
[6] = molecular target: T2, cathepsin L (Homo sapiens, UniProt P07711); experiment: cathepsin L enzyme assay, IC50 determination (Z-FR-MCA fluorescence); format: biochemical; conditions: pH 5.5, 0.01% Triton X-100, 2 nM enzyme, 2 µM Z-FR-MCA
T2 construct: Cathepsin L enzyme and all reagents used for buffer preparation were purchased from Sigma-Aldrich; purchased Sigma-Aldrich (St. Louis, MO, USA)
T2 sequence (P07711 114-333): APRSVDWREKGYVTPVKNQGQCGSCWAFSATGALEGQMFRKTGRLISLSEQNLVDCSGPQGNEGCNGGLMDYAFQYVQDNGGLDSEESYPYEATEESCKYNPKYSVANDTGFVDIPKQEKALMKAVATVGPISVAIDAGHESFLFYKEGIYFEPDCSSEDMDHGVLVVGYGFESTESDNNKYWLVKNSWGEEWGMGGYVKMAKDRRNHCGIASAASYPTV
Protocol: as §2
as §3, with “Both assays were carried out with 2 nM of the respective enzymes and 2 µM of the substrate Z-FR-MCA.” left out
The reaction started by the addition of the substrate Z-FR-MCA was monitored by recording the emission at wavelength 460 nm while exciting at 360 nm. Fluorescence was measured using a Synergy HT fluorimeter microplate reader (Biotek). The percentage of inhibition was calculated according to following equation: [drawing 1] where vi and v0 are the initial velocities determined in presence and absence of inhibitors, respectively. […]

[7] = molecular target: T2, cathepsin L; experiment: cathepsin L affinity constant (Ki) determination, Michaelis-Menten curves; format: biochemical; conditions: pH 5.5, 0.01% Triton X-100, inhibitor 30, 50 and 70 µM
Protocol: as §2
as §3, with “Both assays were carried out with 2 nM of the respective enzymes and 2 µM of the substrate Z-FR-MCA.” left out
(§4) The Michaelis-Menten curves were determined in the absence and presence of 30, 50 and 70 µM respectively of each inhibitor. […] The reaction was started and monitored as described above. The mechanisms of inhibition and K i values were determined using the kinetic module of SigmaPlot 10.0 by adjusting the velocities into the competitive, non-competitive and uncompetitive modes. […]

[8] = molecular target: T1, cruzain; experiment: cruzain affinity constant (Ki) and mechanism determination, Michaelis-Menten curves; format: biochemical; conditions: pH 6.3, 0.01% Triton X-100, inhibitor 30, 50 and 70 µM
Protocol: as §2
as §3, with “Both assays were carried out with 2 nM of the respective enzymes and 2 µM of the substrate Z-FR-MCA.” left out
as §4

[9] = test system: Chagas disease; set-up: method as in PMID 19620707; conditions: mice and dogs ref 13; cited from earlier work
[10] = set-up: method as in PMID 19620707; conditions: pre-clinical trials ref 13; cited from earlier work
[11] = LLC-MK2, 96 h, Tulahuen lacZ strain, 4 days of culture, read-out: Trypanocidal activity IC50
[12] = TULAHUEN, LLC-MK2, average for compounds Neq165, Neq172, Neq176 and Neq177, read-out: trypanocidal pIC50 on average (converted)
[13] = LLC-MK2, Tulahuen lacZ strain, read-out: trypanocidal pIC50 (converted)

SMILES | IC50 [1, 11] [µM] | IC50 [1, 12] [µM] | IC50 at 24 h [2] [µM] | IC50 [4] [µM] | further results
NC(=O)c1ccsc1NC(=O)COC(=O)[C@@H](Cc1ccccc1)NC(=O)OCc1ccccc1 [Neq172] | 166 ± 12.9 | ~158 | 23 | 73.1 ± 4.9 | IC50 [3]: 23.1 ± 2.7 µM
Cc1nnc(SCC(=O)Nc2sccc2C(N)=O)n1Cc1ccccc1 [Neq165] | 153.4 ± 0.6 | ~158 | – | 31.3 ± 1.2 | –
O=C(Cn1ccnc1[N+](=O)[O-])NCc1ccccc1 [Bz, N-benzyl-2-nitro-1-imidazolacetamide, reference compound] | 64.3 ± 12.3 | – | > 500 | – | successful cure [5]: up to 80%; IC50 [1, 13]: 63.1 µM; cytotoxicity ratio (IC50(cyto)/IC50)(T. cruzi) [3]: 8
NC(=O)c1ccsc1NC(=O)CSc1nnc(CN2CCCCC2)n1Cc1ccccc1 [Neq42] | 10.6 ± 0.1 | – | 50 | 21.6 ± 5.4 | IC50 [1, 13]: 12.6 µM; preliminary trypanocidal activity ([1]; single dose of 250 µM, Tulahuen lacZ strain): active; IC50 [3]: 49.9 ± 2.7 µM; cytotoxicity ratio (IC50(cyto)/IC50)(T. cruzi) [3]: 5; IC50 [6]: 35.1 ± 11 µM; Ki [7]: 35.6 ± 8.2 µM; Ki [8]: 18.5 ± 5.5 µM
NC(=O)c1ccsc1NC(=O)CSc1nnc[nH]1 [Neq176] | 108 ± 52.2 | ~158 | > 250 | 68.5 ± 3 | ligand efficiency (LE) ([4]; from cruzain potency): 0.33 kcal mol^-1 atom^-1
CC(Sc1nncn1-c1ccccc1)C(=O)Nc1sccc1C(N)=O (stereo not drawn) [Neq177] | 137 ± 14.4 | ~158 | > 250 | 48.9 ± 10 | –
CN1CCN(C(=O)N[C@@H](Cc2ccccc2)C(=O)N[C@H](/C=C/S(=O)(=O)c2ccccc2)CCc2ccccc2)CC1 [Compound K11777] | – | – | – | – | efficacy in models of acute and chronic Chagas disease [9]: demonstrated efficacy; mutagenicity [10]: non-mutagenic; pharmacokinetic profile [10]: acceptable pharmacokinetic profile; tolerability [10]: well tolerated

Reference: PMC3750009, “Non-peptidic Cruzain Inhibitors with Trypanocidal Activity Discovered by Virtual Screening and In Vitro Assay” (PLoS Neglected Tropical Diseases, 2013)
